From patent publication US11078204B2, “Heterocyclic derivatives as PI3K inhibitors” (Incyte Corporation, priority 2018, dated 2021)
Where a name gives a salt, the structure may show the parent alone.

Assays:
[1] = tested on: Phosphorylated Ribosomal Protein S6 (RPS6) in THP-1 cells; experiment: THP-1 RPS6 ELISA Assay; type: cell-based; details: Homo sapiens, 2 hours compound, 10 nM MCP-1 for 15 minutes, Phospho-RPS6 ELISA, read-out: PI3Kγ_THP1_RPS6_ELISA IC50
Protocol: Example A. THP-1 RPS6 ELISA Assay To measure the Phosphorylated Ribosomal Protein S6 (RPS6) in cell lysates, THP-1 cells (Human Acute Monocytic Leukemia) are purchased from ATCC (Manassas, Va.) and maintained in RPMI with 10% FBS (Gibco/Life Technologies, Carlsbad, Calif.). For the assay, THP-1 cells are serum starved overnight in RPMI, then plated in RPMI (2×10^5 cells/well in 90 μL) into 96-well flat-bottom tissue culture treated plates (Corning, Corning, N.Y.), in the presence or absence of a concentration range of test compounds. Covered plates are incubated for 2 hours at 37° C., 5% CO2 then treated with or without 10 nM MCP-1 (MYBioSource, San Diego, Calif.) for 15 minutes at 37° C., 5% CO2. Plates are centrifuged at 1600 RPM and supernatants are removed. Cells are lysed in Lysis Buffer (Cell Signaling, Danvers, Mass.) with Protease Inhibitor (Calbiochem/EMD, Germany), PMSF (Sigma, St Louis Mo.), HALTS (Thermo Fisher, Rockford, Ill.) for 30 min on wet ice. Cell lysates are frozen at −80° C. before testing. The lysates are tested in the Human/Mouse/Rat Phospho-RPS6 ELISA (R&D Systems, Inc. Minn, Minn.). The plate is measured using a microplate reader (SpectraMax M5-Molecular Devices, LLC Sunnyvale, Calif.) set to 450 nm with a wavelength correction of 540. IC50 determination is performed by fitting the curve of inhibitor percent inhibition versus the log of the inhibitor concentration using the GraphPad Prism 5.0 software.

[2] = molecular target: PI3Kδ (p110δ/p85α) Recombinant Human Protein (Homo sapiens (Human), UniProt O00329); experiment: PI3Kδ Scintillation Proximity Assay; type: biochemical; details: 20 μM PIP2, 2 μM ATP, 3.4 nM PI3Kδ, 120 min
Source text: Example C. PI3Kδ Scintillation Proximity Assay
(§1) [γ-^33P]ATP (10 mCi/mL) and Wheat Germ Agglutinin (WGA) YSi SPA Scintillation Beads was purchased from Perkin Elmer (Waltham, Mass.). Lipid kinase substrate, D-myo-Phosphatidylinositol 4,5-bisphosphate (PtdInS(4,5)P2)D (+)-sn-1,2-di-O-octanoylglyceryl, 3-O-phospho linked (PIP2), CAS 204858-53-7, was purchased from Echelon Biosciences (Salt Lake City, Utah). PI3Kδ (p110δ/p85α) Recombinant Human Protein was purchased from Eurofins (St Charles, Mo.). ATP, MgCl2, DTT, EDTA, MOPS and CHAPS were purchased from Sigma Aldrich (St. Louis, Mo.).
(§2) The kinase reaction was conducted in polystyrene 384-well Greiner Bio-one white plate from Thermo Fisher Scientific in a final volume of 25 μL. Inhibitors were first diluted serially in DMSO and added to the plate wells before the addition of other reaction components. The final concentration of DMSO in the assay was 2%. The PI3Kδ assay was carried out at room temperature in 20 mM MOPS, pH 6.7, 10 mM MgCl2, 5 mM DTT and CHAPS 0.03%. Reactions were initiated by the addition of ATP, the final reaction mixture consisted of 20 μM PIP2, 2 μM ATP, 0.5 μCi [γ-^33P]ATP, 3.4 nM PI3Kδ. Reactions were incubated for 120 min and terminated by the addition of 40 μL SPA beads suspended in quench buffer: 163 mM potassium phosphate pH 7.8, 20% glycerol, 25 mM EDTA. The final concentration of SPA beads is 1.0 mg/mL. After the plate sealing, plates were shaken overnight at room temperature and centrifuged at 1500 rpm for 10 min, the radioactivity of the product was determined by scintillation counting on Topcount (PerkinElmer). IC50 determination was performed by fitting the curve of percent of the solvent control activity versus the log of the inhibitor concentration using the GraphPad Prism 6.0 software.

[3] = molecular target: PI3Kγ (p110γ) Recombinant Human Protein (Homo sapiens (Human), UniProt P48736); experiment: PI3K-γ Scintillation Proximity Assay; type: biochemical; details: 20 μM PIP2, 2 μM ATP, 13 nM PI3Kγ, 120 min
Source text: Example B. PI3K-γ Scintillation Proximity Assay
as §1, with “PI3Kγ (p110γ)” for “PI3Kδ (p110δ/p85α)”, “Life technology (Grand Island, N.Y.).” for “Eurofins (St Charles, Mo.).”
as §2, with “PI3Kγ” for “PI3Kδ”, “[γ-^33p]ATP, 13” for “[γ-^33P]ATP, 3.4”, “PI3Kγ.” for “PI3Kδ.”

PI3Kδ (p110δ/p85α) Recombinant Human Protein, sequence (O00329 whole entry): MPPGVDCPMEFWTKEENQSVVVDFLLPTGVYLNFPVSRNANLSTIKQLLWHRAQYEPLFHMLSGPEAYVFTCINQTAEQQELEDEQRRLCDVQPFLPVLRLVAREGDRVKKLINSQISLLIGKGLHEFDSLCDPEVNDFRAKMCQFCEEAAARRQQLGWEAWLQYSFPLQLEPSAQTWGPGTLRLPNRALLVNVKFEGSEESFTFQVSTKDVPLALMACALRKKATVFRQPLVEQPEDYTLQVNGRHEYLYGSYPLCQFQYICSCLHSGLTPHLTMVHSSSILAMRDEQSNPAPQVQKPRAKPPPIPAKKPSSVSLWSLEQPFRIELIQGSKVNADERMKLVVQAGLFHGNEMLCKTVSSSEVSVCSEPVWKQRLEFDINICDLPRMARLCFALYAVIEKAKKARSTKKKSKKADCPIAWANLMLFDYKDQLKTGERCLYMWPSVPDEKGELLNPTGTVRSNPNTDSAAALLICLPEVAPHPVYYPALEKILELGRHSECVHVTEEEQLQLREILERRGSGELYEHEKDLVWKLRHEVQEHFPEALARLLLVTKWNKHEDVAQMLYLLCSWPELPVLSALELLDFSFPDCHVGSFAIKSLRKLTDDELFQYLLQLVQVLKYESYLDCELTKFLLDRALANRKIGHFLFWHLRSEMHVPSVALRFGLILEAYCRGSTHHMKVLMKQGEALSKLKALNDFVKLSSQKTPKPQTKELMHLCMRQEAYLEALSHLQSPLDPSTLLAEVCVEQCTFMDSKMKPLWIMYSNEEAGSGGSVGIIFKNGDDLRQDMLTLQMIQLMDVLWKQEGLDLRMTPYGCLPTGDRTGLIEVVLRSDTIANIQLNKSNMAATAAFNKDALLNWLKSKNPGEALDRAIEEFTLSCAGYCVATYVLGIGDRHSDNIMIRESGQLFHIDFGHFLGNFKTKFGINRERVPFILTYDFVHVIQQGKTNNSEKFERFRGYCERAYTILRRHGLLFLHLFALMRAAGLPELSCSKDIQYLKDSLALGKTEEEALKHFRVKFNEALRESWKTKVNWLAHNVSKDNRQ
PI3Kδ (p110δ/p85α) Recombinant Human Protein, sequence (P27986 whole entry partner): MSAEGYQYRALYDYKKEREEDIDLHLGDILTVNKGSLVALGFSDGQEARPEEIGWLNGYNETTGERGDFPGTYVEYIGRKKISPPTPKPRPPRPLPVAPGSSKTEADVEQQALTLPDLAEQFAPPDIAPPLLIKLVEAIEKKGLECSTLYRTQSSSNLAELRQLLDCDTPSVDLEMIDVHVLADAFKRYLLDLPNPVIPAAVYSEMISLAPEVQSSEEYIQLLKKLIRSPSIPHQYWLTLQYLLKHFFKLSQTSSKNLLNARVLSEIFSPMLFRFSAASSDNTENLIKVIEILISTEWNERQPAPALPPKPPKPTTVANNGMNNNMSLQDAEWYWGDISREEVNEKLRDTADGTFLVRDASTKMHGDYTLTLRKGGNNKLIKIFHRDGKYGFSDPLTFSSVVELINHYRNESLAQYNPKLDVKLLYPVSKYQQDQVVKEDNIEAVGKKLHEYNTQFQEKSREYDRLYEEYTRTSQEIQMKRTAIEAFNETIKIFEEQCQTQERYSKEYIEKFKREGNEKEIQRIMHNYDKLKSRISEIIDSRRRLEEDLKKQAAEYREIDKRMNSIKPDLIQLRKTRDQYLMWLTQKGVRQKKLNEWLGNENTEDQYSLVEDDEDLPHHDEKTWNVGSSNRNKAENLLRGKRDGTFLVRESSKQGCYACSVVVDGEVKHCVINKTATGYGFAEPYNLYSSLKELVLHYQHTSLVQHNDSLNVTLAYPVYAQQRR
PI3Kγ (p110γ) Recombinant Human Protein, sequence (P48736 whole entry): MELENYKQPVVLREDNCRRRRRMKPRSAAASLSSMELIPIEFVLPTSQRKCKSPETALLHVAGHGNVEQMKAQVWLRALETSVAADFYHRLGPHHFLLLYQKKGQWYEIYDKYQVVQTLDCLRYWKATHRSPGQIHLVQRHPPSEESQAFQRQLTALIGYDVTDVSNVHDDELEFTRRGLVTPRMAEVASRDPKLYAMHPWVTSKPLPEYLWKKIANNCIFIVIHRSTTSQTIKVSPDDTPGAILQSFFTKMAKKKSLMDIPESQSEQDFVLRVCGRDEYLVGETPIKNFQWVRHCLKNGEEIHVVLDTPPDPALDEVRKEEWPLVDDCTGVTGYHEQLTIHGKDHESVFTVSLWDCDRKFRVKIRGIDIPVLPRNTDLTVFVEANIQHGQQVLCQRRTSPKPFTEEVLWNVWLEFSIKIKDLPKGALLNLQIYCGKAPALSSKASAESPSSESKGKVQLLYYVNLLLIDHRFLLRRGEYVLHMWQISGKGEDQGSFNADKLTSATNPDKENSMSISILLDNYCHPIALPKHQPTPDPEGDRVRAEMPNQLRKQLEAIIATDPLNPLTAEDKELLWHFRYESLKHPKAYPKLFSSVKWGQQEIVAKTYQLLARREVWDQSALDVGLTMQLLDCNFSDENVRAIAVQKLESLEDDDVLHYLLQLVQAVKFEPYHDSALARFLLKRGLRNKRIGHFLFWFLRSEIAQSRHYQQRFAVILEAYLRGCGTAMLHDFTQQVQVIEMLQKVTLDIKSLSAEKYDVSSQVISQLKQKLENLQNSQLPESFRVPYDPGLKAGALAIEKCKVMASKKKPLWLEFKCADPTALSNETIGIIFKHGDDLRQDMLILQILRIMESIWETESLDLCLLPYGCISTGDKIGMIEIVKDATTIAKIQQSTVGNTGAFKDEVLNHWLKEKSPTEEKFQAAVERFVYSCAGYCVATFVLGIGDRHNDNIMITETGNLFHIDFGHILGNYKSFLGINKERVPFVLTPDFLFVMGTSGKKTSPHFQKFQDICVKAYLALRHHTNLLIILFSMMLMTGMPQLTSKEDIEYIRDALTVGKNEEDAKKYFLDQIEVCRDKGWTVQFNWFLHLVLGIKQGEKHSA

Compound	IC50 [1] [µM]	IC50 [2] [µM]	IC50 [3] [µM]
CC(C)N1Cc2cc(-c3cnc4c(N)ncnn34)ccc2C1=O [Example 14, 5-(4-Aminoimidazo[2,1-f][1,2,4]triazin-7-yl)-2-isopropylisoindolin-1-one trifluoroacetate salt]	≥ 1	≥ 2	≤ 0.1
CC(=O)c1cc(-c2cnc3c(N)ncnn23)cc2c1C(=O)N([C@@H](C)C1CC1)C2 [Example 15, (S)-7-Acetyl-5-(4-aminoimidazo[2,1-f][1,2,4]triazin-7-yl)-2-(1-cyclopropylethyl)isoindolin-1-one trifluoroacetate salt]	≥ 1	≤ 0.5	≤ 0.1
CC(C1CC1)n1cc2cc(-c3cnc4c(N)ncnn34)cnc2n1 (stereo not drawn) [Example 25, 7-(2-(1-Cyclopropylethyl)-2H-pyrazolo[3,4-b]pyridin-5-yl)imidazo[2,1-f][1,2,4]triazin-4-amine trifluoroacetate salt]	≥ 1	≥ 2	≤ 0.1
C[C@@H](C1CC1)N1Cc2cc(-c3cnc4c(N)nc(C(=O)N5CCC5)cn34)cc(S(C)(=O)=O)c2C1=O [Example 29a, (S)-5-(8-Amino-6-(azetidine-1-carbonyl)imidazo[1,2-a]pyrazin-3-yl)-2-(1-cyclopropylethyl)-7-(methylsulfonyl)isoindolin-1-one, trifluoroacetate salt]	≥ 1	< 2	≤ 0.1
C[C@@H](C1CC1)N1Cc2cc(-c3cnc4c(N)nc(C(=O)N5CC(F)(F)C5)cn34)cc(S(C)(=O)=O)c2C1=O [Example 29d, (S)-5-(8-Amino-6-(3,3-difluoroazetidine-1-carbonyl)imidazo[1,2-a]pyrazin-3-yl)-2-(1-cyclopropylethyl)-7-(methylsulfonyl)isoindolin-1-one, trifluoroacetate salt]	< 1	≤ 0.5	≤ 0.1
C[C@@H](C1CC1)N1Cc2cc(-c3cnc4c(N)nc(C(=O)NC5CC(O)C5)cn34)ccc2C1=O (stereo partly drawn) [Example 31, (S)-8-Amino-3-(2-(1-cyclopropylethyl)-1-oxoisoindolin-5-yl)-N-(3-hydroxycyclobutyl)imidazo[1,2-a]pyrazine-6-carboxamide, trifluoroacetate salt]	≥ 1	≥ 2	≤ 0.1
Cc1[nH]ncc1-c1cn2c(-c3cc4c(c(S(C)(=O)=O)c3)C(=O)N([C@@H](C)C3CC3)C4)cnc2c(N)n1 [Example 37, (S)-5-(8-Amino-6-(5-methyl-1H-pyrazol-4-yl)imidazo[1,2-a]pyrazin-3-yl)-2-(1-cyclopropylethyl)-7-(methylsulfonyl)isoindolin-1-one, trifluoroacetate salt]	< 1	≤ 0.5	≤ 0.1
C[C@@H](C1CC1)N1Cc2cc(-c3cnc4c(N)nc(-c5cn[nH]c5)cn34)cc(S(C)(=O)=O)c2C1=O [Example 38, (S)-5-(8-Amino-6-(1H-pyrazol-4-yl)imidazo[1,2-a]pyrazin-3-yl)-2-(1-cyclopropylethyl)-7-(methylsulfonyl)isoindolin-1-one, trifluoroacetate salt]	≥ 1	≤ 0.5	≤ 0.1

Second part, the compound after the results:

IC50 [1] [µM]	IC50 [2] [µM]	IC50 [3] [µM]	Compound
< 1	< 2	≤ 0.1	C[C@@H](C1CC1)N1Cc2cc(-c3cnc4c(N)ncnn34)cc(C(C)(C)O)c2C1=O [Example 17, (S)-5-(4-Aminoimidazo[2,1-f][1,2,4]triazin-7-yl)-2-(1-cyclopropylethyl)-7-(2-hydroxypropan-2-yl)isoindolin-1-one trifluoroacetate salt]
< 1	≤ 0.5	≤ 0.1	C[C@@H](C1CC1)N1Cc2cc(-c3cnc4c(N)nc(C(=O)NC5CCOCC5)cn34)cc(S(C)(=O)=O)c2C1=O [Example 29, (S)-8-Amino-3-(2-(1-cyclopropylethyl)-7-(methylsulfonyl)-1-oxoisoindolin-5-yl)-N-(tetrahydro-2H-pyran-4-yl)imidazo[1,2-a]pyrazine-6-carboxamide, trifluoroacetate salt]
< 1	≤ 0.5	≤ 0.1	C[C@@H](C1CC1)N1Cc2cc(-c3cnc4c(N)nc(C(=O)N5CC(C)(C)C5)cn34)cc(S(C)(=O)=O)c2C1=O [Example 29c, (S)-5-(8-Amino-6-(3,3-dimethylazetidine-1-carbonyl)imidazo[1,2-a]pyrazin-3-yl)-2-(1-cyclopropylethyl)-7-(methylsulfonyl)isoindolin-1-one, trifluoroacetate salt]
≤ 0.1	≤ 0.1	≤ 0.1	Cc1ncc(-c2cn3c(-c4cc5c(c(S(C)(=O)=O)c4)C(=O)N([C@@H](C)C4CC4)C5)cnc3c(N)n2)s1 [Example 34, (S)-5-(8-Amino-6-(2-methylthiazol-5-yl)imidazo[1,2-a]pyrazin-3-yl)-2-(1-cyclopropylethyl)-7-(methylsulfonyl)isoindolin-1-one, trifluoroacetate salt]
≤ 0.5	≤ 0.5	≤ 0.1	C[C@@H](C1CC1)N1Cc2cc(-c3cnc4c(N)nc(-c5cnn(C)c5)cn34)cc(S(C)(=O)=O)c2C1=O [Example 35, (S)-5-(8-Amino-6-(1-methyl-1H-pyrazol-4-yl)imidazo[1,2-a]pyrazin-3-yl)-2-(1-cyclopropylethyl)-7-(methylsulfonyl)isoindolin-1-one, trifluoroacetate salt]
≤ 0.5	≤ 0.5	≤ 0.1	C[C@@H](C1CC1)N1Cc2cc(-c3cnc4c(N)nc(-c5ccnn5C)cn34)cc(S(C)(=O)=O)c2C1=O [Example 36, (S)-5-(8-Amino-6-(1-methyl-1H-pyrazol-5-yl)imidazo[1,2-a]pyrazin-3-yl)-2-(1-cyclopropylethyl)-7-(methylsulfonyl)isoindolin-1-one, trifluoroacetate salt]
